The values that follow are results of earlier work, collected in patent US20080139483A1, “DRUG COMBINATION FOR HYPERTENSIVE DISORDERS” (priority 2006, published 2008).

For one data set, the system named is patients with PAH. Particulars: does not appear to be dose related.

In the case of `COC(c1ccccc1)(c1ccccc1)[C@H](Oc1nc(C)cc(C)n1)C(=O)O` [ambrisentan], the potential liver toxicity result with patients with PAH is “low incidence and severity of potential liver toxicity”. In the data set with p450, the “drug interactions (p450 induction or inhibition)” value is “no p450 induction or inhibition”.
